This note sets out measurements from patent publication US20250206722A1, “SMALL MOLECULE INHIBITORS OF TEA DOMAIN FAMILY MEMBERS” (The Scripps Research Institute, priority 2022, published 2025).

As usually defined, the IC50 is the concentration that gives 50% inhibition. A lower IC50 goes with greater potency in that assay.

Common to all, as to format: cell-based
The test system of assay [1] is transcriptional activity of TEADs. Briefly: TEAD reporter assay (MCF7 TEAD-LUC reporter cells). To be noted: Homo sapiens, 24 hours, BrightGlo luminescence. Put shortly: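 Luminescence (BrightGlo) was read after 24 h of compound treatment at 37 °C, 5 % CO2. Cells had been seeded at 5,000 per well in DMEM with 10 % FBS and insulin and rested 24 h first. Dosing used 20 points, 1:2 dilution from 20 μM final, triplicates.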
Background: In a reporter assay the amount or activity of a reporter protein is the signal.

Another assay has as its system NCI-H226 cells. Briefly: NCI-H226 proliferation assay (in house). The following applies: Homo sapiens, 120 h, 5 days, Cell TiterGlo, 20-point 1:2 dilution from 20 μM. Put shortly: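 Viability by CellTiter-Glo luminescence after 5-day compound exposure at 37 °C, 5% CO2. Compounds added 24 h post-seeding (500 cells/well, RPMI 1640 with 10% FBS) as 20-point, 2-fold series from 20 μM final, triplicate wells.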
In general terms: Cellular ATP, detected with luciferase, serves as a proxy for viable cell number.

Another assay relates to IMR32 cells. Briefly: IMR32 cytotoxicity assay. The following applies: Homo sapiens, IMR-32, 72 h, 3 days, Cell TiterGlo. Here is the method:
IMR32 cells were obtained from American Type Culture Collection (ATCC, CCL-127) and cultured in DMEM (Corning, 10-013-CV) supplemented with 10% fetal bovine serum (Gibco, 10438-026) and 1% penicillin-streptomycin (Gibco, 15070063). Cells were trypsinized, resuspended in growth medium, and diluted to a concentrated of 20,000 cells/mL. 1,000 cells, 50 μL of cell suspension, per well were then plated in a white 384-well plate (Corning) and incubated at 37° C., 5% CO2. After 24 hours incubation, 100 nL of test compounds in DMSO, 20-point 1:2 dilution starting from 20 μM (final concentration) in triplicate, were transferred to each well using an Agilent Bravo instrument outfitted with a pintool head. Cells were incubated at 37° C., 5% CO2 for 3 days followed by the addition of 30 μL of Cell TiterGlo (Promega; diluted 1:6 in water) to each well and luminescence values recorded using an EnVision plate reader. […]

A value given as a limit tells only on which side of the number the result lay.

On to `C=CC(=O)N1CCN(c2nccnc2Nc2ccc(C(F)(F)F)cc2)C[C@@H]1CC#N` [Example 22, (S)-2-(1-acryloyl-4-(3-((4-(trifluoromethyl)phenyl)amino)pyrazin-2-yl)piperazin-2-yl)acetonitrile], for which the half-maximal inhibitory concentration (IC50) in assay [1] came to 25.9 nM; in the assay with NCI-H226 cells, 0.27 µM; with IMR32 cells it was 15 µM.

With `C=CC(=O)N1CCN(c2nccnc2OC2CCC(F)(F)CC2)CC1` [Example 93, 1-(4-{3-[(4,4-difluorocyclohexyl)oxy]pyrazin-2-yl}piperazin-1-yl) prop-2-en-1-one], the values for the half-inhibitory concentration (IC50) (in assay [1]; in the assay on NCI-H226 cells; with IMR32 cells) were 7 nM, 0.078 µM and more than 20 µM, respectively.

As to `C=CC(=O)N1CCN(c2ncccc2Nc2ccc(C(F)(F)F)cc2)CC1` [Example 134, 1-[4-(3-{[4-(trifluoromethyl)phenyl]amino}pyridin-2-yl)piperazin-1-yl]prop-2-en-1-one], the concentration for half-maximal inhibition (IC50) is 2.24 nM in assay [1], 0.023 µM in the assay on NCI-H226 cells and more than 10 µM in the assay with IMR32 cells.

For `CC(=O)N1CCN(c2nccnc2Nc2ccc(C(F)(F)F)cc2)CC1` [Example 168, 1-(4-(3-((4-(trifluoromethyl)phenyl)amino)pyrazin-2-yl)piperazin-1-yl)ethan-1-one], the half-inhibitory concentration (IC50) in assay [1] was 487 nM; with NCI-H226 cells, more than 10 µM; with IMR32 cells, more than 20 µM.

Consider `C=CC(=O)N1CCN(c2nccnc2Nc2ccc(C(F)(F)F)cc2)C[C@H]1C` [Example 13, (R)-1-(2-methyl-4-(3-((4-(trifluoromethyl)phenyl)amino)pyrazin-2-yl)piperazin-1-yl)prop-2-en-1-one], for which the IC50 is 3.48 nM in assay [1], 0.0159 µM in the assay with NCI-H226 cells and more than 10 µM with IMR32 cells.

With `C=CC(=O)N1CCN(c2ccnc(Nc3ccc(C(F)(F)F)cc3)n2)CC1` [Example 123, 1-[4-(2-{[4-(trifluoromethyl)phenyl]amino}pyrimidin-4-yl)piperazin-1-yl]prop-2-en-1-one], the values for the IC50 (in assay [1]; with NCI-H226 cells; with IMR32 cells) were 279 nM, 0.91 µM and 4.87 µM, respectively.

As for `C=CC(=O)NC1CN(c2nccnc2Nc2ccc(C(F)(F)F)cc2)C1` [Example 3, N-(1-(3-((4-(trifluoromethyl)phenyl)amino)pyrazin-2-yl)azetidin-3-yl) acrylamide], the IC50 in assay [1] worked out at 3760 nM; in the assay with NCI-H226 cells, 8.24 µM; in the assay on IMR32 cells, 10 µM.

In the case of `C=CC(=O)N(C)CCOc1nccnc1Nc1ccc(C(F)(F)F)cc1` [Example 191, N-methyl-N-(2-((3-((4-(trifluoromethyl)phenyl)amino)pyrazin-2-yl)oxy)ethyl)acrylamide], the IC50 in assay [1] stood at 4.3 nM; in the assay with NCI-H226 cells it was 0.047 µM; in the assay with IMR32 cells, 10 µM.

In the case of `C=CC(=O)N1CCN(c2nccnc2Nc2ccc(F)cc2)CC1` [Example 33, 1-(4-(3-((4-fluorophenyl)amino)pyrazin-2-yl)piperazin-1-yl)prop-2-en-1-one], the IC50 was 10.2 nM in assay [1], 0.101 µM in the assay on NCI-H226 cells and more than 20 µM in the assay on IMR32 cells.

As to `O=C(C(F)Cl)N1CCN(c2nccnc2Nc2ccc(C(F)(F)F)cc2)CC1` (stereo not drawn) [Example 169, 2-chloro-2-fluoro-1-(4-(3-((4-(trifluoromethyl)phenyl)amino)pyrazin-2-yl)piperazin-1-yl)ethan-1-one], the IC50 is 13.1 nM in assay [1], 0.037 µM in the assay with NCI-H226 cells and more than 10 µM with IMR32 cells.

For `C=CC(=O)N1CCN(c2nccnc2Nc2ccc(C(F)(F)F)cc2)C[C@H]1CO` [Example 16, (S)-1-(2-(hydroxymethyl)-4-(3-((4-(trifluoromethyl)phenyl)amino)pyrazin-2-yl)piperazin-1-yl)prop-2-en-1-one], the 50% inhibitory concentration (IC50) in assay [1] is 2500 nM; with NCI-H226 cells it was more than 20 µM; in the assay with IMR32 cells, 5 µM.

Regarding `C=CC(=O)N1CCN(c2nccnc2Nc2ccc(Cl)cc2)CC1` [Example 32, 1-(4-(3-((4-chlorophenyl)amino)pyrazin-2-yl)piperazin-1-yl)prop-2-en-1-one], the concentration for half-maximal inhibition (IC50) in assay [1] stood at 4.67 nM; in the assay with NCI-H226 cells, 0.059 µM; with IMR32 cells, 20 µM.

On to `C=CC(=O)N1CCN(c2nccnc2Nc2cnc(C(F)(F)F)nc2)CC1` [Example 52, 1-(4-(3-((2-(trifluoromethyl)pyrimidin-5-yl)amino)pyrazin-2-yl)piperazin-1-yl)prop-2-en-1-one], for which the IC50 is 10.5 nM in assay [1], 0.128 µM in the assay on NCI-H226 cells and more than 20 µM with IMR32 cells.

In the case of `N#CCN1CCN(c2nccnc2Nc2ccc(C(F)(F)F)cc2)CC1` [Example 175, 2-(4-(3-((4-(trifluoromethyl)phenyl)amino)pyrazin-2-yl)piperazin-1-yl)acetonitrile], the 50% inhibitory concentration (IC50) in assay [1] was 833 nM; with NCI-H226 cells it was more than 10 µM; in the assay on IMR32 cells, more than 20 µM.

Take `C=C(CN1CCCC1)C(=O)N1CCN(c2nccnc2Nc2ccc(C(F)(F)F)cc2)CC1` [Example 189, 2-(pyrrolidin-1-ylmethyl)-1-(4-(3-((4-(trifluoromethyl)phenyl)amino)pyrazin-2-yl)piperazin-1-yl)prop-2-en-1-one]: the IC50 turned out to be 2120 nM in assay [1], 5.36 µM in the assay on NCI-H226 cells and 9.3 µM in the assay on IMR32 cells.

For `C=CC(=O)N1CCN(c2nccnc2Nc2ncc(C(F)(F)F)cn2)CC1` [Example 41, 1-(4-(3-((5-(trifluoromethyl)pyrimidin-2-yl)amino)pyrazin-2-yl)piperazin-1-yl)prop-2-en-1-one], the concentration for half-maximal inhibition (IC50) is 23 nM in assay [1], 0.198 µM with NCI-H226 cells and more than 20 µM in the assay with IMR32 cells.

`N#CN1CCN(c2nccnc2Nc2ccc(C(F)(F)F)cc2)CC1` [Compound 2, 4-(3-{[4-(trifluoromethyl)phenyl]amino}pyrazin-2-yl)piperazine-1-carbonitrile]: the IC50 in assay [1] was 468 nM; in the assay with NCI-H226 cells, 0.252 µM; in the assay with IMR32 cells, more than 20 µM.

`C=CC(=O)N1CCCN(c2nccnc2Nc2ccc(C(F)(F)F)cc2)CC1` [Example 27, 1-(4-(3-((4-(trifluoromethyl)phenyl)amino)pyrazin-2-yl)-1,4-diazepan-1-yl)prop-2-en-1-one]: the IC50 in assay [1] was determined as 29.7 nM; with NCI-H226 cells, 0.164 µM; in the assay with IMR32 cells it was 10 µM.

With `C=CC(=O)N1[C@@H]2CC[C@H]1CN(c1nccnc1Nc1ccc(C(F)(F)F)cc1)C2` [Example 12, 1-((1R,5S)-3-(3-((4-(trifluoromethyl)phenyl)amino)pyrazin-2-yl)-3,8-diazabicyclo[3.2.1]octan-8-yl)prop-2-en-1-one], the IC50 stood at 491 nM in assay [1], 1.16 µM in the assay on NCI-H226 cells and 10 µM with IMR32 cells.

On to `C#CC(=O)N1CCN(c2nccnc2Nc2ccc(C(F)(F)F)cc2)CC1` [Example 173, 1-(4-(3-((4-(trifluoromethyl)phenyl)amino)pyrazin-2-yl)piperazin-1-yl)prop-2-yn-1-one], for which the figures for the IC50 (in assay [1]; in the assay on NCI-H226 cells; with IMR32 cells) were 36.5 nM, 0.507 µM and 0.202 µM, respectively.

Take `C=CC(=O)NC1CCN(c2nccnc2Nc2ccc(C(F)(F)F)cc2)CC1` [Example 9, N-(1-(3-((4-(trifluoromethyl)phenyl)amino)pyrazin-2-yl)piperidin-4-yl)acrylamide]: the IC50 in assay [1] was 29.6 nM; in the assay with NCI-H226 cells, more than 10 µM; in the assay on IMR32 cells, 10 µM.

As for `C=CC(=O)N1CCN(c2nccc(Nc3ccc(C(F)(F)F)cc3)n2)CC1` [Example 125, 1-[4-(4-{[4-(trifluoromethyl)phenyl]amino}pyrimidin-2-yl)piperazin-1-yl]prop-2-en-1-one], the results for the half-inhibitory concentration (IC50) (in assay [1]; in the assay on NCI-H226 cells; in the assay with IMR32 cells) were 258 nM, 2.52 µM and 7.06 µM, respectively.

For the compound `C=CC(=O)N1CCN(c2nccnc2Nc2ccc(C(F)(F)F)cc2)C[C@H]1CC#N` [Example 21, (R)-2-(1-acryloyl-4-(3-((4-(trifluoromethyl)phenyl)amino)pyrazin-2-yl)piperazin-2-yl)acetonitrile], the IC50 in assay [1] is 43 nM; in the assay on NCI-H226 cells it was 0.32 µM; in the assay on IMR32 cells, more than 10 µM.

In the case of `C=CC(=O)N1CCN(c2nccnc2Oc2ccc(C(F)(F)F)cc2)CC1` [Example 69, 1-(4-(3-(4-(trifluoromethyl)phenoxy)pyrazin-2-yl)piperazin-1-yl)prop-2-en-1-one], the IC50 in assay [1] is 0.9 nM; in the assay with NCI-H226 cells, 0.0115 µM; with IMR32 cells, more than 20 µM.

For the compound `C=CC(=O)N1CCN(c2nccnc2Nc2cccc(C(F)(F)F)c2)CC1` [Example 30, 1-(4-(3-((3-(trifluoromethyl)phenyl)amino)pyrazin-2-yl)piperazin-1-yl)prop-2-en-1-one], the IC50 is 19.9 nM in assay [1], more than 1 µM in the assay on NCI-H226 cells and more than 10 µM with IMR32 cells.

Turning to `C=CC(=O)N1CCC(N(C)c2ccnc(Nc3ccc(C(F)(F)F)cc3)n2)CC1` [Example 124, 1-(4-(methyl(2-((4-(trifluoromethyl)phenyl)amino)pyrimidin-4-yl)amino)piperidin-1-yl)prop-2-en-1-one], the concentration for half-maximal inhibition (IC50) amounted to 331 nM in assay [1], 4.64 µM with NCI-H226 cells and 4.2 µM in the assay on IMR32 cells.
